Measurements: US4002623A, “Anti-inflammatory 1-[3-(dialkylamino)propyl]-2-acylaminobenzimidazoles and 2-acylamino-3-[3-(dialkylamino)-propyl]imidazo[4,5-b]pyridines” (Pfizer Inc., priority 1974, dated 1977)
Read-outs that look alike come from different tables or passages of the source.

Experiment: adjuvant arthritis screen (Walz et al.), swelling of the non-injected left hind foot on Day 16
Format: in vivo, male inbred Lewis rats
Conditions: Rattus norvegicus, 384 h, daily day -1 through day 15, read-out: Activity Percent Inhibition; for inhibition in vivo at 33 mg/kg: 33 mg./kg. ip; for inhibition in vivo at 20 mg/kg: 20 mg./kg. po
From the text: The adjuvant arthritis test described by Walz et al., Ann. Rheum. Dis., 30, 303 (1971) was selected as the method of choice for the determination of the extent of which the novel compounds of the present invention are therapeutically effective as anti-inflammatory agents. Adjuvant arthritis is a crippling deformity in rats resulting from diffuse connective tissue involvement. It is considered by some authorities to be the best available experimental animal model of human rheumatoid arthritis because of its strong clinical and pathological similarities to the human disease and because it can be effectively treated with known anti-arthritic drugs. In this test, lesions resembling those of human rheumatoid arthritis are induced by the injection of complete Freund's adjuvant into one hind leg of a rat. A vigorous inflammatory response occurs in the injected hind leg and reaches its greatest size in about four days. This primary response is followed by the development of a second inflammatory response, appearing about 12-16 days post-injection, that occurs in the uninjected hind leg. While the compounds of the invention are capable of inhibiting the degree of inflammation in both legs, the inhibition of swelling in the uninjected leg at 16 days is considered to be the more meaningful measure of antiarthritic activity.
The adjuvant arthritis screen as described by Walz et al. (Ann. Rheum. Dis., 30: 303 (1971), was used to evaluate the above prepared compounds.
The screen is conducted using male inbred Lewis rats weighing approximately 250 gm. The animals are dosed with drug beginning on day- 1 and continuing daily through day 15. On Day 0, the subplanter surface of the right hind paw is injected with 0.1cc of a 1% suspension of Mycobacterium butyricum (Freunds adjuvant) in Primol (Esso). The swelling of the non-injected left hind foot on Day 16, resulting from immune response to adjuvant, was determined for dosed animals and controls. The foot volume is measured by immersing the paw to the anatomical hairline into a mercury reservoir which is connected to a Statham pressure transducer and a recording device. The results are expressed as % inhibition calculated according to the following equation: [formula] The results obtained are as follows for [drawing 22] where Z is --N(CH3)2 and X is carbon: […]

| SMILES | inhibition in vivo at 33 mg/kg [%] | inhibition in vivo at 20 mg/kg [%] | further results |
| --- | --- | --- | --- |
| CN1CCN(CCCn2c(NC(=O)c3cccc(C(F)(F)F)c3)nc3ccccc32)CC1 [3-Trifluoromethylphenyl; H; H; drawing 24] | 79 |  | inhibition in vivo at 10 mg/kg (10 mg./kg. po): 18% |
| O=C(Nc1nc2ccccc2n1CCCN1CCCCC1)c1ccc(Cl)c(Cl)c1 [3,4-Dichlorophenyl; H; H; drawing 26] | 25 |  |  |
| CN1CCN(CCCn2c(NC(=O)c3ccc(Cl)cc3)nc3cc(C(F)(F)F)ccc32)CC1 [4-Chlorophenyl; CF3; H; drawing 24] | 47 |  |  |
| COc1ccc2c(c1)nc(NC(=O)c1cccc(Cl)c1)n2CCCN1CCN(C)CC1 [3-Chlorophenyl; OCH3; H; drawing 24] | 59 |  | inhibition in vivo at 10 mg/kg (10 mg./kg. po): -1% |
| CN(C)CCCn1c(NC(=O)C=Cc2ccc(Cl)cc2)nc2ccccc21 [4-Chlorostyryl; H; H; Z = N(CH3)2] | 33 |  |  |
| O=C(Nc1nc2ccccc2n1CCCN1CCCCC1)c1ccc(Cl)cc1 [4-Chlorophenyl; H; H; drawing 26] | 46 |  |  |
| CN1CCN(CCCn2c(NC(=O)c3ccc(-c4ccccc4)cc3)nc3ccccc32)CC1 [p-Phenylphenyl; H; H; drawing 24] | 46 |  |  |
| CN1CCN(CCCn2c(NC(=O)C=Cc3ccc(Cl)cc3)nc3cc(Cl)ccc32)CC1 [4-Chlorostyryl; Cl; H; drawing 24] | 66 |  |  |
| CN(C)CCCn1c(NC(=O)c2ccccc2)nc2ccccc21 [Phenyl; H; H; Z = N(CH3)2] | 8 |  |  |
| O=C(Nc1nc2ccccc2n1CCCN1CCCCC1)c1cccc(C(F)(F)F)c1 [3-Trifluoromethylphenyl; H; H; drawing 26] | 30 |  |  |
| O=C(Nc1nc2ccccc2n1CCCN1CCNCC1)c1ccccc1 [Phenyl; H; H; drawing 28] |  |  | inhibition in vivo at 10 mg/kg (10 mg./kg. ip): 19% |
| COc1ccc2c(c1)nc(NC(=O)c1cccc(C(F)(F)F)c1)n2CCCN1CCN(C)CC1 [3-Trifluoromethylphenyl; OCH3; H; drawing 24] | 57 |  | inhibition in vivo at 10 mg/kg (10 mg./kg. po): -5% |
| CCCCCCCCCC(=O)Nc1nc2ccccc2n1CCCN1CCN(C)CC1 [CH3 (CH2)8; H; H; drawing 24] |  | 45 |  |
| CN1CCN(CCCn2c(NC(=O)c3ccccc3)nc3cc(S(=O)(=O)N(C)C)ccc32)CC1 [Phenyl; SO2 N(CH3)2; H; drawing 24] |  | 32 |  |
| COc1ccc2c(c1)nc(NC(=O)C=Cc1ccc(Cl)cc1)n2CCCN1CCN(C)CC1 [4-Chlorostyryl; OCH3; H; drawing 24] |  |  | inhibition in vivo at 10 mg/kg (10 mg./kg. po): 47% |
| Cc1cc2nc(NC(=O)c3ccc(Cl)c(Cl)c3)n(CCCN3CCN(C)CC3)c2cc1C [3,4-Dichlorophenyl; CH3; CH3; drawing 24] |  | 18 |  |
| COc1cccc(C(=O)Nc2nc3cccnc3n2CCCN2CCN(C)CC2)c1 [3-Methoxyphenyl; H; H; drawing 25] |  | 25 |  |
| CN1CCN(CCCn2c(NC(=O)c3ccc(Cl)c(Cl)c3)nc3cccnc32)CC1 [3,4-Dichlorophenyl; H; H; drawing 25, 2-(3,4-dichlorobenzamido)-3-[4-(methyl-1-piperazino)-propyl]imidazo[4,5-b]pyridine] |  | 41 | inhibition in vivo at 10 mg/kg (10 mg./kg. po): 27% |
| COc1ccc(C(=O)Nc2nc3cc(Cl)ccc3n2CCCN2CCN(C)CC2)cc1 [4-Methoxyphenyl; Cl; H; drawing 24] | 46 |  |  |
| O=C(Nc1nc2ccccc2n1CCCN1CCNCC1)c1ccc(C(F)(F)F)cc1 [4-Trifluoromethylphenyl; H; H; drawing 28, 2-(4-trifluoromethylbenzamido)-1-[3-(1-piperazinyl)propyl]benzimidazole] |  |  | inhibition in vivo at 10 mg/kg (10 mg./kg. ip): 28% |
| COc1ccc(C(=O)Nc2nc3cc(S(=O)(=O)N(C)C)ccc3n2CCCN2CCN(C)CC2)cc1 [4-Methoxyphenyl; SO2 N(CH3)2; H; drawing 24] |  | 27 |  |
| CN1CCN(CCCn2c(NC(=O)c3ccc(Cl)c(Cl)c3)nc3ccccc32)CC1 [3,4-Dichlorophenyl; H; H; drawing 24, 1-[3-(4-methyl-1-piperazinyl)propyl]-2-(3,4-dichlorobenzamido)benzimidazole] | 61 |  | inhibition in vivo at 10 mg/kg (10 mg./kg. po): 32% |
| CN1CCN(CCCn2c(NC(=O)c3cccc(C(F)(F)F)c3)nc3cccnc32)CC1 [3-Trifluoromethylphenyl; H; H; drawing 25, 2-(3-trifluoromethylbenzamido)-3-[3-(4-methyl-1-piperazino)propyl]imidazo[4,5-b]pyridine] |  | 39 |  |
| COc1ccc(C(=O)Nc2nc3cccnc3n2CCCN2CCN(C)CC2)cc1 [4-Methoxyphenyl; H; H; drawing 25] |  | 5 |  |
